Assays:
hPPARα = molecular target: T1, hPPARα (Homo sapiens, UniProt Q07869); assay: Transient transfection assay in HepG2 cells, Gal4-hPPARα chimeric receptor, luciferase reporter; type: cell-based; settings: Hep G2-hAlpha EC50, 24 hours incubation; read-out: EC50α nM (Group)
T1 sequence (Q07869 200-468 limits assumed): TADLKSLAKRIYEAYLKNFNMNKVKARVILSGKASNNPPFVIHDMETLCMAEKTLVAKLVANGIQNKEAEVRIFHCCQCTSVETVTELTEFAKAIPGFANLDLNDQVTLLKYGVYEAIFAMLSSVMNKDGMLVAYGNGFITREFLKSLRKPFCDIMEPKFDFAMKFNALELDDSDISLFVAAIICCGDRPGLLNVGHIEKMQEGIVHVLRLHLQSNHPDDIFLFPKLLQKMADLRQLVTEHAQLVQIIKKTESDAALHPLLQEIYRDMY
Procedure: (§1) 1. Test A. Transient Transfections Assay using the HepG2 Hepatoma Cell Line.
(§2) HepG2 cells were transiently transfected with an expression plasmids encoding hPPARα, hPPARβ or mPPARγ chimeric receptors and a reporter containing the yeast upstream activating sequence (UAS) upstream of the viral E1B promoter controlling a luciferase reporter gene. In addition, the plasmid pRSVβ-gal was used to control for transfection efficiency. HepG2 cells were grown in DMEM supplemented with 10% FBS and 1 μM non-essential amino acid. On the first day, cells were split into 100 mm dishes at 2.5×10^6/dish and incubated overnight at 37° C./5% CO2. On the second day the cells were transiently transfected with plasmid DNA encoding a chimeric receptor, the luciferase reporter gene; and β-gal. For each 100 mm dish, 15 μg of lucifease reporter (PG5E1b) DNA, 15 μg of Gal4-PPAR chimeric receptor DNA, and 1.5 μg of β-gal plasmid DNA were mixed with 1.4 ml of opti-MEM in the tube. 28 μl of LipoFectamine-2000 reagent was added to 1.4 ml of opti-MEM in the tube, and incubate for 5 min at RT. The diluted Lipofectamine-2000 reagent was combined with the DNA mixture, and incubate for 20 min at RT. After fresh medium was added to each 100 mm dish of cells, 2.8 ml of Lipofectamine2000-DNA mixture was added dropwise to the 100 mm dish containing 14 ml of medium, and incubate 37° C. overnight. On day three cells were trypsinized off the 100 mm dishes and re-plated on 96 well plates. Cells were plated at 2.5×10^4 cells per well in 150 μl of media and 50 μl of compound diluted by media was added. The test compound added were in the range from 50 μM to 50 pM. After addition of compounds, the plates were incubated at 37° C. for 24 hours. Subsequently cells were washed with once with 100 μl of PBS, lysed, and processed for measuring luciferase and β-gal activity using Dual-Light luciferase kit from Tropix ®, according to the manufacturer's recommendations, on an EG&G Bethold MicroLumat LB96P luminometer. EC50 values were obtained using the GraphPad Prism™ program.

hPPARβ = molecular target: T2, hPPARβ (Homo sapiens, UniProt Q03181); assay: Transient transfection assay in HepG2 cells, Gal4-hPPARβ chimeric receptor, luciferase reporter; type: cell-based; settings: Hep G2-hBeta EC50, 24 hours incubation; read-out: EC50β nM (Group)
T2 sequence (Q03181 171-441 limits assumed): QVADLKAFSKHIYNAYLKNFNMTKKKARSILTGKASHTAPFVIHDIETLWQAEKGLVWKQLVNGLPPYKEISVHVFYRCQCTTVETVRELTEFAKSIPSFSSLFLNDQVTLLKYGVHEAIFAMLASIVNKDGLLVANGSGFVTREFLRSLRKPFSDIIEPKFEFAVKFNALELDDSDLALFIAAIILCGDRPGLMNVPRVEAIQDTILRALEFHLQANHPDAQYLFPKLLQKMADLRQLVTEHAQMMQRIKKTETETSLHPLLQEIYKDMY
Procedure: as §1, §2

Row | SMILES | melting point | EC50 (hPPARα) [nM] | EC50 (hPPARβ) [nM]
1 | COc1cc(OCC(=O)O)c(C)cc1SCc1ccc(-c2ccccc2)cc1 [Example 1, [4-(Biphenyl-4-ylmethylsulfanyl)-5-methoxy-2-methyl-phenoxy]-acetic acid] | 60 to 62 °C | < 300 | < 300
2 | COc1cc(OCC(=O)O)c(C)cc1SCc1ccc(-c2ccc(Cl)cc2Cl)cc1 [Example 7, [4-(2′,4′-Dichloro-biphenyl-4-ylmethylsulfanyl)-5-methoxy-2-methyl-phenoxy]-acetic acid] | – | < 300 | < 300
3 | COc1cc(OCC(=O)O)c(C)cc1SCc1ccc(-c2cccc(C(F)(F)F)c2)cc1 [Example 9, [5-Methoxy-2-methyl-4-(3′-trifluoromethyl-biphenyl-4-ylmethylsulfanyl)-phenoxy]-acetic acid] | 138 to 139 °C | < 300 | < 300
4 | COc1cc(OCC(=O)O)c(C)cc1SCc1ccc(-c2ccc(F)cc2)cc1 [Example 10, [4-(4′-Fluoro-biphenyl-4-ylmethylsulfanyl)-5-methoxy-2-methyl-phenoxy]-acetic acid] | – | 300 to 500 | < 300
5 | COc1cc(OCC(=O)O)c(C)cc1SCc1ccc(-c2cccc(OC(F)(F)F)c2)cc1 [Example 11, [5-Methoxy-2-methyl-4-(3′-trifluoromethoxy-biphenyl-4-ylmethylsulfanyl)-phenoxy]-acetic acid] | – | 500 to 1000 | < 300
6 | COc1cc(OCC(=O)O)c(C)cc1SCc1ccc(OCc2ccc(C(F)(F)F)cc2)cc1 [Example 14, {5-Methoxy-2-methyl-4-[4-(4-trifluoromethyl-benzyloxy)-benzylsulfanyl]-phenoxy}-acetic acid] | 145 °C | < 300 | –
7 | COc1cc(OCC(=O)O)c(C)cc1SCc1cccc(-c2cccc(OC(F)(F)F)c2)c1 [Example 16, [5-Methoxy-2-methyl-4-(3′-trifluoromethoxy-biphenyl-3-ylmethylsulfanyl)-phenoxy]-acetic acid] | 92 to 94 °C | < 300 | < 300
8 | Cc1cc(SCc2ccc3c(c2)Cc2ccccc2-3)ccc1OCC(=O)O [Example 17] | – | 2000 to 5000 | 1000 to 2000
9 | COc1cc(OCC(=O)O)c(C)cc1SCc1ccc(-c2ccc(C(F)(F)F)cn2)cc1 [Example 18, {5-Methoxy-2-methyl-4-[4-(5-trifluoromethyl-pyridin-2-yl)-benzylsulfanyl]-phenoxy}-acetic acid] | 225 °C (dec.) | > 5000 | < 300
10 | COc1cc(OCC(=O)O)c(C)cc1SCc1ccc(-c2ccc(C(F)(F)F)cc2)nc1 [Example 19, {5-Methoxy-2-methyl-4-[6-(4-trifluoromethyl-phenyl)-pyridin-3-ylmethylsulfanyl]-phenoxy}-acetic acid] | 203 °C (dec.) | < 300 | < 300
11 | Cc1cc(SCc2ccc(-c3ccc(C(F)(F)F)cc3)cc2)c(Cl)cc1OCC(=O)O [Example 20, [5-Chloro-2-methyl-4-(4′-trifluoromethyl-biphenyl-4-ylmethylsulfanyl)-phenoxy]-acetic acid] | 161 to 162 °C | 2000 to 5000 | < 300
12 | COc1cc(OCC(=O)O)ccc1SCc1ccc(-c2ccc(C(F)(F)F)cc2)cc1 [Example 21, [3-Methoxy-4-(4′-trifluoromethyl-biphenyl-4-ylmethylsulfanyl)-phenoxy]-acetic acid] | – | < 300 | < 300

More lines, now with the values ahead:

Row | melting point | EC50 (hPPARα) [nM] | EC50 (hPPARβ) [nM] | SMILES
13 | 132 to 134 °C | 500 to 1000 | 1000 to 2000 | Cc1cc(SCCc2ccc(-c3ccc(C(F)(F)F)cc3)cc2)ccc1OCC(=O)O [Example 22, {2-Methyl-4-[2-(4′-trifluoromethyl-biphenyl-4-yl)-ethylsulfanyl]-phenoxy}-acetic acid]
14 | 169 to 171 °C | < 300 | < 300 | COc1cc(OCC(=O)O)c(C)cc1SCCc1ccc(-c2ccc(C(F)(F)F)cc2)cc1 [Example 23, {5-Methoxy-2-methyl-4-[2-(4′-trifluoromethyl-biphenyl-4-yl)-ethylsulfanyl]-phenoxy}-acetic acid]
15 | – | 1000 to 2000 | 1000 to 2000 | Cc1cc(SCc2ccc(-c3ccc(C(F)(F)F)cn3)cc2)ccc1OCC(=O)O [Example 30, {2-Methyl-4-[4-(5-trifluoromethyl-pyridin-2-yl)-benzylsulfanyl]-phenoxy}-acetic acid]
16 | – | 2000 to 5000 | < 300 | COc1cc(OCC(=O)O)c(C)cc1SCc1cc(-c2ccc(Cl)cc2)on1 [Example 41, {4-[5-(4-Chloro-phenyl)-isoxazol-3-ylmethylsulfanyl]-5-methoxy-2-methyl-phenoxy}-acetic acid]
17 | – | 2000 to 5000 | – | Cc1cc(SCc2cc(-c3ccc(C(F)(F)F)cc3)on2)ccc1OCC(=O)O [Example 42, {2-Methyl-4-[5-(4-trifluoromethyl-phenyl)-isoxazol-3-ylmethylsulfanyl]-phenoxy}-acetic acid]
18 | – | 500 to 1000 | < 300 | COc1cc(OCC(=O)O)c(C)cc1SCc1cc(-c2ccc(C(F)(F)F)cc2)on1 [Example 43, {5-Methoxy-2-methyl-4-[5-(4-trifluoromethyl-phenyl)-isoxazol-3-ylmethylsulfanyl]-phenoxy}-acetic acid]
19 | – | > 5000 | 500 to 1000 | O=C(O)COc1ccc(SCc2cc(-c3ccc(C(F)(F)F)cc3)on2)c2c1CCC2 [Example 44, {7-[5-(4-Trifluoromethyl-phenyl)-isoxazol-3-ylmethylsulfanyl]-indan-4-yloxy}-acetic acid]
20 | – | < 300 | < 300 | COc1cc(OCC(=O)O)c(C)cc1SCc1cc(-c2ccc(C(F)(F)F)cc2)no1 [Example 46, {5-Methoxy-2-methyl-4-[3-(4-trifluoromethyl-phenyl)-isoxazol-5-ylmethylsulfanyl]-phenoxy}-acetic acid]
21 | – | 2000 to 5000 | < 300 | O=C(O)COc1ccc(SCc2cccc(-c3ccc(C(F)(F)F)cc3)c2)c2c1CCC2 [Example 48, [7-(4′-Trifluoromethyl-biphenyl-3-ylmethylsulfanyl)-indan-4-yloxy]-acetic acid]
22 | – | 300 to 500 | < 300 | COc1cc(OCC(=O)O)c(C)cc1SCc1cccc(-c2ccc(C(F)(F)F)cc2)c1 [Example 49, [5-Methoxy-2-methyl-4-(4′-trifluoromethyl-biphenyl-3-ylmethylsulfanyl)-phenoxy]-acetic acid]
23 | – | 500 to 1000 | < 300 | CCCc1cc(SCc2ccc(-c3ccc(C(F)(F)F)cc3)cc2)ccc1OCC(=O)O [Example 52, [2-Propyl-4-(4′-trifluoromethyl-biphenyl-4-ylmethylsulfanyl)-phenoxy]-acetic acid]
24 | – | 1000 to 2000 | < 300 | O=C(O)COc1ccc(SCc2cccc(-c3ccc(C(F)(F)F)cn3)c2)c2c1CCC2 [Example 53, {7-[3-(5-Trifluoromethyl-pyridin-2-yl)-benzylsulfanyl]-indan-4-yloxy}-acetic acid]
25 | 145 °C | 2000 to 5000 | – | O=C(O)COc1ccc(SCc2ccc(OCc3ccc(C(F)(F)F)cc3)cc2)c2c1CCC2 [Example 63, {7-[4-(4-Trifluoromethyl-benzyloxy)-benzylsulfanyl]-indan-4-yloxy}-acetic acid]
26 | 113 to 115 °C | > 5000 | – | O=C(O)COc1ccc(SCc2cccc(OCc3ccc(C(F)(F)F)cc3)c2)c2c1CCCO2 [Example 84, {8-[3-(4-Trifluoromethyl-benzyloxy)-benzylsulfanyl]-chroman-5-yloxy}-acetic acid]
27 | 155 to 157 °C | – | 500 to 1000 | CCCCc1cc(SCc2ccc(-c3ccc(C(F)(F)F)cc3)cc2)ccc1OCC(=O)O [Example 100, 2-[2-butyl-4-({4-[4-(trifluoromethyl)phenyl]phenyl}methylthio)phenoxy]acetic acid]

— patent US6964983B2, “Compounds that modulate PPAR activity and methods for their preparation” (Warner-Lambert Company, LLC, priority 2002, dated 2005)
